Laboratory results from publication PMC10499915 (Scientific Reports, 2023).
Values after ≈ are worked out from the molar mass of the structure shown. Like-named read-outs stand apart in the source and are kept apart here. Square brackets hold non-standard residues; d marks the D form. Peptide text beside a SMILES is read from it. * marks the point of attachment. Palmitoyl = CCCCCCCCCCCCCCCC(=O)*; Lauroyl = CCCCCCCCCCCC(=O)*; Octanoyl = CCCCCCCC(=O)*; Aun = NCCCCCCCCCCC(=O)O

Assays:
[1] = system: E.coli ATCC 25922; assay type: cell-based, Escherichia coli; details: ATCC 25922, 18 h
Protocol: (§1) The bacterial strains used were Escherichia coli ATCC 25922, Staphylococcus aureus ATCC 25923, Klebsiella pneumoniae ATCC 700603, Acinetobacter baumannii ATCC 19606, Pseudomonas aeruginosa ATCC 27853 and Staphylococcus epidermidis ATCC 12228. The reference bacterial strains used were purchased from American Type Culture Collection (ATCC) (Manassas, Virginia, USA). They were grown overnight (o/n) at 37 °C in complete Müller-Hinton broth (MHB, Difco) medium with shaking (130 rpm). The day after, the overnight bacterial cultures were diluted in fresh MHB (300 μL o/n culture in 10 mL) and incubated at 37 °C with shaking (130 rpm) for approximately 2 h (mid-log phase) until reaching an optical density (OD) at 600 nm (OD600) ≈ 0.3.
(§2) Peptides diluted in MHB to a concentration of 128 μM were added to the first column of wells of a 96-well round-bottom microtiter plate (Sarstedt, Milan, Italy) and serially diluted (1:2) in a final volume of 50 μL MHB was added to the next wells. Then, a mid-log bacterial cultures (OD 600≈ 0.3) were diluted to 5 × 10^5 colony-forming units (CFU)/mL in MHB and 50 μL of this bacterial suspension was added to each well. In this way, the final bacterial concentration was reduced to 2.5 × 10^5 CFU/mL and the peptide concentration in the wells was also halved in a final volume of 100 μL (final bacteria load was 2.5 × 10^4 CFU/well). The same amount of untreated bacteria in MHB was used as a control for bacterial growth. […] MIC was determined by visual inspection at the end of incubation as the first clear well. Data are reported as moda of independent experiments repeated three times or four times in case of uncertain values.

[2] = system: S.aureus ATCC 25923; assay type: cell-based, Staphylococcus aureus
Protocol: as §1, §2

[3] = system: A.baumanni ATCC 19606; assay type: cell-based, Acinetobacter baumannii; details: ATCC 19606, 18 h
Protocol: as §1, §2

[4] = system: K.pneumoniae ATCC 700603; assay type: cell-based, Klebsiella pneumoniae; details: ATCC 700603, 18 h
Protocol: as §1, §2

[5] = system: P.aeruginosa ATCC 27853; assay type: cell-based, Pseudomonas aeruginosa; details: ATCC 27853, 18 h
Protocol: as §1, §2

[6] = system: S.epidermidis ATCC 12228; assay type: cell-based, Staphylococcus epidermidis; details: ATCC 12228, 18 h
Protocol: as §1, §2

[7] = system: ram red blood cells (RBCs); details: 4% v/v ram RBCs in PBS, 1 h, 37 °C, absorbance 540 nm, 100% = 1% Triton X-100; all concentrations tested; n = 3
Protocol: The lytic potential towards eukaryotic cell membranes was assessed by measuring the release of haemoglobin from commercial ram red blood cells (RBCs) (Microbiol s.r.l., Cagliari, Italy) after exposure to the peptides. First, erythrocytes were isolated by centrifugation, washed with PBS and then suspended at 8% (v/v) in PBS. Secondly, 100 µL erythrocytes suspension was added into each well of a 96-well microplate. Then, 100 µL peptide solution was added to each well at different concentrations (the final concentration of erythrocytes suspension was 4% v/v), and the plates were incubated for 1 h at 37 °C and centrifuged at 1000 g for 10 min. Finally, 100 µL aliquots of supernatant were transferred to fresh 96-well microplate, and the release of haemoglobin was monitored by measuring the absorbance at 540 nm with Tecan microplate reader (Tecan Trading AG, Switzerland). 0% and 100% haemolysis were determined in PBS and 1% Triton X-100, respectively.

[8] = system: HaCaT cell line; details: 24 h
Protocol: Cytotoxicity was measured by the MTT assay on human immortalized epidermal keratinocyte HaCaT cell line (DKFZ, Eppelheim, Germany). The HaCaT cells were grown in high-glucose Dulbecco’s modified Eagle’s medium (DMEM) (Sigma-Aldrich, Milan, Italy). DMEM medium was supplemented with 10% foetal bovine serum (FBS; Sigma, Milan, Italy), 2 mM glutamine (Sigma, Milan, Italy), 100 U/mL penicillin (Sigma, Milan, Italy) and 100 µg/mL streptomycin (Sigma, Milan, Italy). The cells were maintained at 37 °C in the presence of 5% CO2 and in a humidified incubator.
Cells were counted in a Burker-Türk chamber to prepare a suspension of 2 × 10^5 cells/ml in DMEM High Glucose Complete Medium (Sigma-Aldrich, Milan, Italy). 100 μL of this suspension was added to the wells of a 96-well flat-bottom transparent microtiter plate (Euroclone, Milan, Italy) specially treated for tissue culture. The plate was incubated for 24 h at 37 °C and 5% CO2 to allow the cells in each well to reach a semiconfluent state. The following day, serial dilutions (1:2) of the peptides, starting with 64 μM, were prepared in DMEM medium, and 100 μL of these solutions were used to replace the medium in the plate with HaCaT cells. The same amount of untreated DMEM high-glucose medium was used as a cell growth control. DMEM high-glucose complete medium (100 μL) was used as a negative control to check the sterility of the medium. The plate was sealed with Parafilm to minimize evaporation and incubated at 37 °C and 5% CO2 for 20 h. Then, 25 μL MTT (Sigma-Aldrich, Milan, Italy) dissolved in phosphate-buffered saline (PBS) was added to each well to a final concentration of 1 mg/mL MTT, and the plate was incubated for 4 h in the dark at 37 °C and 5% CO2.
At the end of incubation, 100 μL 10% (w/v) Igepal (Sigma-Aldrich, Milan, Italy) in 10 mM HCl was added to each well, and the plate was incubated overnight in the dark at 37 °C and 5% CO2. The absorbance of MTT at 570 nm was measured using a Nanoquant Infinite-M200Pro plate reader (Tecan, Männedorf, Switzerland). Student’s t-test was performed for all samples.

[9] = system: T1, chymotrypsin; experiment: Proteolytic stability with chymotrypsin; assay type: in vitro ADME; details: chymotrypsin (isolated enzyme) in buffer, after 90 min, Tris·HCl 50 mM pH 7.8, 37 °C
T1 construct: purchased Sigma-Aldrich
Protocol: The stability of the peptides in the presence of chymotrypsin was monitored by HPLC–MS, analysing the fragments derived from the degradation of the peptide. All 20-mer analogues (a–f) are sensitive to chymotrypsin. The rate of peptide degradation was calculated as the percentage of intact peptide detected at defined time points. All peptides were mostly degraded within the first 15 min of incubation, with the exception of the lipopeptide e and the short peptide h. […] For peptide h, which was designed with an Aib residue to improve proteolytic resistance, 50% of the peptide was still intact after 90 min (Fig. 5A). The other peptides were cleaved on the C-terminal side of Leu21 or Trp23 as the first cleavage observed. Successive degradations involve Leu14 for all peptides (with the exception of a and h). Concerning 13-mer peptides (g and h), degradation at position 21 occurred only for g and not for the Aib containing peptide h, for which Leu14 is the sensitive point for chymotrypsin attack.
All the degradation experiments were executed in triplicates.

[10] = 4h and 24 h incubation, different concentrations
[11] = Hydrophobicity by RP-HPLC retention time; assay type: physicochemical; details: for Retention time tR: used as measure of hydrophobicity, RP-HPLC, Phenomenex Luna C18 (100 Å, 5µ), linear gradient 5%B to 95%B over 30 min, A 0.1% TFA in 9:1 water:acetonitrile, B 0.1% TFA in 9:1 acetonitrile:water, 1 mL/min, peptide 0.5 mg/mL in MeOH, UV 215 and 280 nm; for Hydrophobicity ΔtR: ΔtR = tR(x)−tR(a), relative to compound a, RP-HPLC C18, 5%–95%B over 30 min
Protocol: Peptide hydrophobicity was calculated as difference in retention times between peptide analogues b–h and peptide a. Each peptide was dissolved in MeOH to a concentration of 0.5 mg/mL and then subjected to RP-HPLC on an analytical Phenomenex Luna C18 (100 Å, 5µ) column using 0.1% TFA in 9:1 water:acetonitrile as solvent A, and 0.1% TFA in 9:1 acetonitrile:water as solvent B. The peptides were eluted using a linear gradient as follows: 5%B to 95%B over 30 min. The flow rate was 1 mL/min and the absorbance was measured at 215 nm and 280 nm. The retention time was recorded for each peptide.

[12] = system: E. coli, A. baumannii, K. pneumoniae, P. aeruginosa, and S. epidermidis strains; assay type: cell-based; details: 18 h
Protocol: as §1, §2

[13] = human serum, 37 °C, HPLC-MS; preliminary
Protocol: The proteolytic stability of synthetic peptides was assessed using chymotrypsin (Sigma–Aldrich) and human serum (Sigma–Aldrich)[46]. The peptide (0.125 mg) was dissolved in the minimum amount (5 µl) of DMSO (dimethylsulfoxide) and then diluted (final volume: 50 µl) with Tris·HCl 50 mM, pH 7.8. Then, it was incubated with and without the enzyme solution (1.25 µg of enzyme in 150 µl buffer) at 37 °C for 24 h. After the workup procedures, the samples were analysed by RP-HPLC as described in the ‘peptide synthesis and characterization’ experimental section. A peptide not resistant to chymotripsin was used as a positive test. As a control, we used the 128-137 C-terminal portion of natural Endonuclease V. The peptide sequence is as follows: […]. All the degradation experiments were executed in triplicates.
Figure S10. […] The bars indicate the final time when the HPLC-MS signal of the peptides is still detectable in solution.

[14] = S.aureus ATCC 25923, Mueller–Hinton broth, 18 h, 37 °C, 2.5 × 10^5 CFU/mL, visual, mode of three independent tests

| Molecule | MIC [1] [µM] | MIC ([2]; ATCC 25923, 18 h) [µM] | MIC [3] [µM] | MIC [4] [µM] | MIC [5] [µM] | MIC [6] [µM] | membranolytic (haemolytic) effect on erythrocytes [7] | HC50 (cytotoxicity on HaCaT cells) [8] [µM] | remaining at 1.5 h, 0.625 mg/mL ([9]; 0.125 mg peptide, 1.25 µg enzyme, HPLC peak area (HPLC–MS), triplicates, read-out: percentage of intact peptide with chymotrypsin) [%] | metabolised at 1.5 h, 0.625 mg/mL ([9]; HPLC, read-out: percentage of peptide degraded by chymotrypsin) [%] | solubility in Müller-Hinton broth [10] | Retention time tR [11] [min] | Hydrophobicity ΔtR [11] | MIC [2, 14] [µM] | MIC, span over all tested bacterial strains except S. aureus [12] [µM] | proteolytic degradation in serum [13] |
| --- | --- | --- | --- | --- | --- | --- | --- | --- | --- | --- | --- | --- | --- | --- | --- | --- |
| CC[C@H](C)[C@H](NC(=O)[C@H](CO)NC(=O)CNC(=O)[C@@H](NC(=O)[C@@H](NC(=O)[C@H](CCCCN)NC(=O)[C@H](C)NC(=O)[C@@H](NC(=O)[C@H](Cc1c[nH]c2ccccc12)NC(=O)[C@H](CCCCN)NC(=O)[C@H](CC(C)C)NC(=O)[C@@H](NC(=O)[C@H](CCCCN)NC(=O)CNC(=O)[C@@H](NC(=O)[C@H](CCCCN)NC(=O)[C@H](CCCCN)NC(=O)[C@H](CC(C)C)NC(=O)[C@H](CCCNC(=N)N)NC(=O)[C@H](CCCCN)NC(C)=O)[C@@H](C)CC)C(C)C)[C@@H](C)CC)[C@@H](C)CC)C(C)C)C(=O)NCCCCCCCCCCC(N)=O [f] (Ac-KRLKKIGKVLKWIAKIVGSI[Aun]-NH2) | 8 (≈ 20 µg/mL) | 8 (≈ 20 µg/mL) | 4 (≈ 10 µg/mL) | 16 (≈ 40.1 µg/mL) | 16 (≈ 40.1 µg/mL) | 8 (≈ 20 µg/mL) | significant lytic effect | < 32 |  |  |  |  |  |  |  |  |
| CCCCCCCCCCCCCCCC(=O)N[C@@H](CCCCN)C(=O)N[C@@H](CCCNC(=N)N)C(=O)N[C@@H](CC(C)C)C(=O)N[C@@H](CCCCN)C(=O)N[C@@H](CCCCN)C(=O)N[C@H](C(=O)NCC(=O)N[C@@H](CCCCN)C(=O)N[C@H](C(=O)N[C@@H](CC(C)C)C(=O)N[C@@H](CCCCN)C(=O)N[C@@H](Cc1c[nH]c2ccccc12)C(=O)N[C@H](C(=O)N[C@@H](C)C(=O)N[C@@H](CCCCN)C(=O)N[C@H](C(=O)N[C@H](C(=O)NCC(=O)N[C@@H](CO)C(=O)N[C@H](C(N)=O)[C@@H](C)CC)C(C)C)[C@@H](C)CC)[C@@H](C)CC)C(C)C)[C@@H](C)CC [e] (Palmitoyl-KRLKKIGKVLKWIAKIVGSI-NH2) | >32 | >32 | >32 | >32 | >32 | >32 | significant lytic effect | < 32 | 65 | < 50 | low solubility |  |  |  |  |  |
| CCCCCCCCCCCC(=O)N[C@@H](CCCCN)C(=O)N[C@@H](CCCNC(=N)N)C(=O)N[C@@H](CC(C)C)C(=O)N[C@@H](CCCCN)C(=O)N[C@@H](CCCCN)C(=O)N[C@H](C(=O)NCC(=O)N[C@@H](CCCCN)C(=O)N[C@H](C(=O)N[C@@H](CC(C)C)C(=O)N[C@@H](CCCCN)C(=O)N[C@@H](Cc1c[nH]c2ccccc12)C(=O)N[C@H](C(=O)N[C@@H](C)C(=O)N[C@@H](CCCCN)C(=O)N[C@H](C(=O)N[C@H](C(=O)NCC(=O)N[C@@H](CO)C(=O)N[C@H](C(N)=O)[C@@H](C)CC)C(C)C)[C@@H](C)CC)[C@@H](C)CC)C(C)C)[C@@H](C)CC [d] (Lauroyl-KRLKKIGKVLKWIAKIVGSI-NH2) | >32 | 32 (≈ 78.7 µg/mL) | 16 (≈ 39.4 µg/mL) | 32 (≈ 78.7 µg/mL) | >32 | 32 (≈ 78.7 µg/mL) | significant lytic effect | < 32 |  |  | low solubility | 22.8 | 9.6 |  |  |  |
| CCCCCCCC(=O)N[C@@H](CCCCN)C(=O)N[C@@H](CCCNC(=N)N)C(=O)N[C@@H](CC(C)C)C(=O)N[C@@H](CCCCN)C(=O)N[C@@H](CCCCN)C(=O)N[C@H](C(=O)NCC(=O)N[C@@H](CCCCN)C(=O)N[C@H](C(=O)N[C@@H](CC(C)C)C(=O)N[C@@H](CCCCN)C(=O)N[C@@H](Cc1c[nH]c2ccccc12)C(=O)N[C@H](C(=O)N[C@@H](C)C(=O)N[C@@H](CCCCN)C(=O)N[C@H](C(=O)N[C@H](C(=O)NCC(=O)N[C@@H](CO)C(=O)N[C@H](C(N)=O)[C@@H](C)CC)C(C)C)[C@@H](C)CC)[C@@H](C)CC)C(C)C)[C@@H](C)CC [c] (Octanoyl-KRLKKIGKVLKWIAKIVGSI-NH2) | 16 (≈ 38.5 µg/mL) | 16 (≈ 38.5 µg/mL) | 8 (≈ 19.2 µg/mL) | 16 (≈ 38.5 µg/mL) | 32 (≈ 76.9 µg/mL) | 8 (≈ 19.2 µg/mL) | significant lytic effect | < 32 |  |  | low solubility | 22.3 | 9.1 |  |  |  |
| Ac-KRLKKIGKVLKWIPPIVGSI-NH2 [a] | 2 |  | 1 | 1 | 4 | 2 |  |  |  |  |  | 13.2 | 0 | 64 | 1 to 4 |  |
| Ac-KRLKKIGKVLKWI-NH2 [g] | 4 | >64 | 2 | 8 | 8 | 4 |  |  |  |  |  | 12.1 |  | > 64 | 2 to 8 | rapidly degraded |
